Test results from PMC11816618, “Pharmacokinetic profile and in vivo anticancer efficacy of anagrelide administered subcutaneously in rodents” (Drug Delivery, 2025).
Where two headings read alike, the source gives them in different places.

Experiment: Long-term plasma exposure after a single SC ANA dose (56-day follow-up), plasma LC-MS/MS
Format: in vivo, Sprague-Dawley rats
Conditions: for AUC(0-inf) / AUC(0-t) / half-life / Cmax / Tmax: Sprague-Dawley, rat, male SD rats, n = 5, 56-day follow-up; for Cmax: read-out: Cmax; for Tmax: read-out: Tmax
Procedure: To monitor the sustained release of SC ANA in the long term, 10 male SD rats were treated with a single dose of either 7.0 mg/kg (n = 5) or 35.0 mg/kg (n = 5). The rats were purchased from SPF Biotechnology Co. Ltd. (Beijing, China). Animals were acclimated to the test facility for at least three days, during which their general health was checked by veterinary staff or other authorized personnel. Animals were kept in polycarbonate cages containing absorbent corncob bedding, with a maintained temperature range of +20-25 °C and a 12-h light/dark cycle. Animals had access to food and drinking water ad libitum during acclimation and the experiment. At the end of the study, the rats were euthanized by exposure to an increasing concentration of CO2. […] The SC formulation was prepared by dissolving micronized ANA (5 μm particle size) in an oily triglyceride ester of saturated caprylic and capric fatty acids and glycerol (Miglyol® 810 N, IOI Oleo GmbH, Hamburg, Germany). […] To evaluate plasma concentration-time profiles, blood samples were collected from the jugular vein in EDTA tubes and stored at -70 °C until further analysis. […] In the second PK analysis in rats with a longer follow-up time, blood samples were collected at 0, 30 min, 1 […], and 56 d after dosage. SD rat plasma was analyzed for ANA, 3-OH-ANA, and RL603 concentrations by Pharmaron (Beijing, China). ANA, 3-hydroxy-anagrelide (CAS No. 733043-41-9, Cat. No. sc-206647, Santa Cruz Biotechnology, Inc., Dallas, TX), and RL603 (CAS No. 327602-34-6, Cat. No. sc-391661, Santa Cruz Biotechnology, Inc., Dallas, TX) were used as reference items in calibration standards and quality control (QC) samples. The HPLC and the MS/MS (LCMS-8060) instruments were both from SHIMADZU (Kyoto, Japan), and the column used was a Raptor Biphenyl column (2.7 μm, 50 × 2.1 mm, Restek, Bellefonte, PA). The desired serial concentrations of working solutions were achieved by diluting analyte stock solution with 50% acetonitrile in water. […] QC samples at 0.5, 1, 2, 50, and 800 ng/mL were prepared independently of those used for the calibration curves. These QC samples were prepared on the day of analysis in the same way as calibration standards. Carbamazepine (CAS No. 298-46-4, Sigma-Aldrich, St. Louis, MO) was used as an internal standard for all analytes. Altogether, 55 μL of standards, 55 μL of QC samples, and 55 μL of test samples (comprising 50 μL of plasma and 5 μL of blank solution) were added to 200 μL of acetonitrile containing an internal standard mixture to precipitate protein. The samples were then vortexed for 30 seconds. After centrifugation at 4000 × g (+4 °C) for 5 min, the supernatant was diluted threefold with water, and 2 μL of the diluted supernatant was injected into the LC/MS/MS system for quantitative analysis. The transitions were 256.00-198.90 m/z for anagrelide hydrochloride, 272.00-198.95 m/z for 3-hydroxy anagrelide, 216.00-198.95 m/z for RL603, and 237.20-194.10 m/z for carbamazepine. […] Plasma drug concentration-time profiles were drawn by the average plasma concentrations at specific time points using Microsoft Excel (Redmond, WA). […] Certara, Princeton, NJ) software. Averages of each variable were used when PK values were compared.

[1] = analyte in plasma after single SC ANA dose 7 mg/kg
[2] = analyte in plasma after single SC ANA dose 35 mg/kg

SMILES: O=C1CN2Cc3c(ccc(Cl)c3Cl)N=C2N1 [Anagrelide, imidazo‐[2,1‐b] quinazolin‐2[3H]‐one, 6,7‐dichloro‐1,5‐dihydro, monohydro‐chloride]
- AUC(0-inf) [1]: 1570 ± 388 ng·h/mL
- AUC(0-t) [1]: 1460 ± 148 ng·h/mL
- half-life [1]: 12.2 days
- Cmax [1]: 6.78 ± 1.86 ng/mL
- Tmax [1]: 1 h
- AUC(0-inf) [2]: 9480 ± 5270 ng·h/mL
- AUC(0-t) [2]: 6350 ± 666 ng·h/mL
- half-life [2]: 14 days
- Cmax [2]: 21.8 ± 8.62 ng/mL
- Tmax [2]: 2.2 ± 1.64 h
- time plasma concentrations were detected after a single administration (single SC administration in rats (7 or 35 mg/kg)): up to 56 days
